This is an account of results in patent US10245261B2, “Substituted indol-5-ol derivatives and their therapeutic applications” (NantBioScience, Inc., priority 2013, dated 2019).

The target in data set [1] is PI3 Kinase (p110α(H1047R)/p85α)(h) (Homo sapiens, UniProt P42336, H1047R). The experiment in a line: KinaseProfiler kinase assay. The class given is biochemical.
The target of another data set is Lck(h) (Homo sapiens, UniProt P06239). The experiment in a line: KinaseProfiler kinase assay. The class given is biochemical.
Chain of Lck(h) (P06239 whole entry): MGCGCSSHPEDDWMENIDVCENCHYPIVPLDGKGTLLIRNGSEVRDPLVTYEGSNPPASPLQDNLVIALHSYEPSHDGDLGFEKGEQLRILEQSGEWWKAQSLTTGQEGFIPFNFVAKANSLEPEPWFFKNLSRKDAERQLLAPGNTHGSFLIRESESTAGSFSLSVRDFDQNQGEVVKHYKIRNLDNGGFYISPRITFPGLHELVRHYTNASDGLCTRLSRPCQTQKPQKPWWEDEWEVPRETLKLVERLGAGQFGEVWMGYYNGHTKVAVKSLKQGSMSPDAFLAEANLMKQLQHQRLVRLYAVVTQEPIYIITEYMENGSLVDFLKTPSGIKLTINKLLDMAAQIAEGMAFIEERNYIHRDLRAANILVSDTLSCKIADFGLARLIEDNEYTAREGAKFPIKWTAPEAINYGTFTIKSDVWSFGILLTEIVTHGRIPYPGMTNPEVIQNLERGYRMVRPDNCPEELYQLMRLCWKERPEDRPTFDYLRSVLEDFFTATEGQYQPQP
The target of the next data set is Abl (Q252H) (h) (Homo sapiens, UniProt P00519, Q252H). The experiment in a line: KinaseProfiler kinase assay. The class given is biochemical.
The target in the next data set is Abl(T315I)(h) (Homo sapiens, UniProt P00519, T315I). The data set can be described thus: KinaseProfiler kinase assay. The class given is biochemical.
The target of the next data set is Fgr(h) (Homo sapiens, UniProt P09769). The experiment in a line: KinaseProfiler kinase assay. The class given is biochemical.
Chain of Fgr(h) (P09769 whole entry): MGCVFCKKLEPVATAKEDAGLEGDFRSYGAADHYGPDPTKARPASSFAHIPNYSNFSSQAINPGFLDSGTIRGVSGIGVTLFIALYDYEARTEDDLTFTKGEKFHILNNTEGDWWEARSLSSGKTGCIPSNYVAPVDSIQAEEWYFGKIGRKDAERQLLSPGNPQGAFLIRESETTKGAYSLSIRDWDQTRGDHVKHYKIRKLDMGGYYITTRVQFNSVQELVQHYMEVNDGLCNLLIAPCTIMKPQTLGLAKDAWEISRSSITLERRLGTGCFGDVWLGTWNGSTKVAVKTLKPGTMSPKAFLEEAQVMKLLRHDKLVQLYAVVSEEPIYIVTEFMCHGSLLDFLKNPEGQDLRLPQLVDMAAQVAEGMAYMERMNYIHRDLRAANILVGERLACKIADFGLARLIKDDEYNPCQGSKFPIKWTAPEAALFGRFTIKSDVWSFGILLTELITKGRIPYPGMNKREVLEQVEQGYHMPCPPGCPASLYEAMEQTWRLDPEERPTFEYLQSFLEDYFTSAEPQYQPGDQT
Another data set deals with DRAK1(h) (Homo sapiens, UniProt Q9UEE5). The experiment in a line: KinaseProfiler kinase assay. The class given is biochemical.
Chain of DRAK1(h) (Q9UEE5 whole entry): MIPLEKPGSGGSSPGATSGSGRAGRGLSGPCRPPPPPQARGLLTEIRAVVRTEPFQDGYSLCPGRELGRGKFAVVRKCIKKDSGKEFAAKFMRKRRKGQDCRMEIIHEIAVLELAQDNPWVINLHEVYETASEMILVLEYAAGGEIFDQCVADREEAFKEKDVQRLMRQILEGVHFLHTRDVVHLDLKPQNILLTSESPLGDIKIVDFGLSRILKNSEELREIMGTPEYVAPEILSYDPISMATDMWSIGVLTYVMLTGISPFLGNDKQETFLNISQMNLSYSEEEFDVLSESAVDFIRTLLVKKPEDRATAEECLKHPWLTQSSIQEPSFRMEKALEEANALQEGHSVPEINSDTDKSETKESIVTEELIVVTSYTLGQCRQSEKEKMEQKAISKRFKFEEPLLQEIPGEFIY
A further data set concerns the target Abl (H396P) (h) (Homo sapiens, UniProt P00519, H396P). The experiment in a line: KinaseProfiler kinase assay. The class given is biochemical.
For another data set, the target named is Abl(Y253F)(h) (Homo sapiens, UniProt P00519, Y253F). The experiment in a line: KinaseProfiler kinase assay. The class given is biochemical.
The test system of data set [2] is human K562 chronic myelogenous leukemia (CML) xenograft. The experiment in a line: CML xenograft model in female SCID mice. The class given is in vivo, mouse. The method, then: The objective of the second study was to evaluate antitumor activities of novel multiple-kinase inhibitor NTW-3475 in human K562 chronic myelogenous leukemia (CML) xenograft model in female SCID mice.
Four to six animals were randomly assigned to study groups. Each animal was weighed, and then injected subcutaneously in the left and right flank area with 0.1 ml of 8.0×10^7 K562 cells per mL.
Each test or control animal was on a 5-day on, two-day off for two cycles treatment schedule. Tumor growth was measured with a digital hand held caliper twice weekly (once tumor emerges) prior to the first dosing and then two to three times weekly until euthanized. Animals were weighed prior to tumor cell injection, prior to dosing, two to three times weekly with tumor growth measurements, and prior to euthanasia.
This example illustrated antitumor activities of Compound 10 and 11 in human K562 chronic myelogenous leukemia (CML) xenograft model in female SCID mice.
On the appropriate days, each animal in an appropriate group will receive a specific amount of test article either at 75 or 100 mg/kg, and the dosing volume is 10 ml/kg by oral gavage as indicated. Dosing schedule will be once daily for 10 days (qd×10, 5 days on and 2 days off for 2 cycles).

The target of another data set is CK1γ1(h) (Homo sapiens, UniProt Q9HCP0). The data set can be described thus: KinaseProfiler kinase assay. The class given is biochemical.
Chain of CK1γ1(h) (Q9HCP0 whole entry): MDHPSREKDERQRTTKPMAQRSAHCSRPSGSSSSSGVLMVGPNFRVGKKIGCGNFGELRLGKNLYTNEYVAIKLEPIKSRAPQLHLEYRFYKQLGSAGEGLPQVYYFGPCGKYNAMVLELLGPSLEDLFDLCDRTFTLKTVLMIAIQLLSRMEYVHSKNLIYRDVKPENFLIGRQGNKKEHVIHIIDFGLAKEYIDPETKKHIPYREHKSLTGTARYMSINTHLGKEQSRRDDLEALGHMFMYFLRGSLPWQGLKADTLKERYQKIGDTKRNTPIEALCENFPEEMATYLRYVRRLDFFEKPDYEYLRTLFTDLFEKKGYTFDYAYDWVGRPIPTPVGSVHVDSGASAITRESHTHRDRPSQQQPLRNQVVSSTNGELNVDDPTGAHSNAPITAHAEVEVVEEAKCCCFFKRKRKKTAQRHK
The target of a further data set is EphB1(h) (Homo sapiens, UniProt P54762). The experiment in a line: KinaseProfiler kinase assay. The class given is biochemical. The procedure, abridged: (§1)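 Using a filter-binding 33P format, reactions initiated by MgATP addition proceeded 40 min at room temperature before a 3% phosphoric acid stop. Filtermats were washed three times in 50 mM phosphoric acid and once in methanol, dried and counted.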
Chain of EphB1(h) (P54762 18-984): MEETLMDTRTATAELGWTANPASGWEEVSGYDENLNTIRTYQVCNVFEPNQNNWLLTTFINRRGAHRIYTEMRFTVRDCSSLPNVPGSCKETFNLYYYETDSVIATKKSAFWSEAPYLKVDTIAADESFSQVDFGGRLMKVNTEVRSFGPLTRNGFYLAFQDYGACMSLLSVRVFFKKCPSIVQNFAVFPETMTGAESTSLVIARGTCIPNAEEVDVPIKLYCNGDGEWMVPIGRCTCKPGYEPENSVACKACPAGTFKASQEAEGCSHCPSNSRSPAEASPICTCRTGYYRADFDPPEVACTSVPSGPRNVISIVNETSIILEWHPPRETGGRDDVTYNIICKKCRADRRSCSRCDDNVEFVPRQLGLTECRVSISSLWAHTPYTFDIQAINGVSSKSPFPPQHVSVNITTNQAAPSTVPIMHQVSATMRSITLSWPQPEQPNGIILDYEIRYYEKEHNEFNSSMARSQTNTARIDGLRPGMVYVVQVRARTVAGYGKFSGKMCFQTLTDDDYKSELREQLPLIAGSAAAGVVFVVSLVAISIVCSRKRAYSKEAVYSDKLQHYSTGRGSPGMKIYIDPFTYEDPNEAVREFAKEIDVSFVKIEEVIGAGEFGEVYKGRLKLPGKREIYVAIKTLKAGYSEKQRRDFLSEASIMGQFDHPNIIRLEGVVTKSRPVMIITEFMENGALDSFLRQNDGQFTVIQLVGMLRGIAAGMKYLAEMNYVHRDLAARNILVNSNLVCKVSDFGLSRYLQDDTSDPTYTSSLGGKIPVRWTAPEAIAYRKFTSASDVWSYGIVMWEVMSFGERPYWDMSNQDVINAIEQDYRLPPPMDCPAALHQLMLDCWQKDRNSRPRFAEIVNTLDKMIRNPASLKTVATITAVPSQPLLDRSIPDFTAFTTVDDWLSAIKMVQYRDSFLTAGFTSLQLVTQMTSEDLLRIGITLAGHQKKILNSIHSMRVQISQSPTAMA

For a further data set, the target named is CK1δ(h) (Homo sapiens, UniProt P48730). The experiment in a line: KinaseProfiler kinase assay. The class given is biochemical. The procedure, abridged: as §1
Chain of CK1δ(h) (P48730 whole entry): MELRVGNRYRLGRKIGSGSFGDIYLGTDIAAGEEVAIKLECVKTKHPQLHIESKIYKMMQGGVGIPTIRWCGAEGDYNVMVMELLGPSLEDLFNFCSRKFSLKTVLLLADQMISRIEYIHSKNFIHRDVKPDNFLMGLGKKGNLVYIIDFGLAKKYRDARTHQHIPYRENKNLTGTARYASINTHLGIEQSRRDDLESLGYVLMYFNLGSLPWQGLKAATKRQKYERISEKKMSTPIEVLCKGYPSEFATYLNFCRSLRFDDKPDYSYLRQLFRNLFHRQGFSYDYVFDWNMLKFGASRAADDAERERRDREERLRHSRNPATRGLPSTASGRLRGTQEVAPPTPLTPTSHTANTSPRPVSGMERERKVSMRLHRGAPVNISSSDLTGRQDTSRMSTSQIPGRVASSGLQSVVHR
The target in a further data set is SAPK2a(T106M)(h) (Homo sapiens, UniProt Q16539, T106M). The data set can be described thus: KinaseProfiler kinase assay. The class given is biochemical. An outline of the steps: as §1
Chain of SAPK2a(T106M)(h) (Q16539 whole entry T106M): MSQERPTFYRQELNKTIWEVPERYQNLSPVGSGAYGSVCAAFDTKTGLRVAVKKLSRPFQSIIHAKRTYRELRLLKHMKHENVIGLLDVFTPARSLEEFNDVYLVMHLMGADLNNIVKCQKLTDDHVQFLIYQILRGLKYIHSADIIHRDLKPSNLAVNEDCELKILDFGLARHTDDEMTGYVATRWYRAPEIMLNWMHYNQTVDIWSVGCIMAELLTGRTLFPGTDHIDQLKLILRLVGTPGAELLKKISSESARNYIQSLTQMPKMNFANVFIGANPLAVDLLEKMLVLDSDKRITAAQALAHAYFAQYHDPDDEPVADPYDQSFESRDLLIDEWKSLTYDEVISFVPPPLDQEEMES
A further data set has as its target Ron(h) (Homo sapiens, UniProt Q04912). The experiment in a line: KinaseProfiler kinase assay. The class given is biochemical. An outline of the steps: as §1
The target of another data set is FGFR4(h) (Homo sapiens, UniProt P22455). The experiment in a line: KinaseProfiler kinase assay. The class given is biochemical.
Chain of FGFR4(h) (P22455 22-802): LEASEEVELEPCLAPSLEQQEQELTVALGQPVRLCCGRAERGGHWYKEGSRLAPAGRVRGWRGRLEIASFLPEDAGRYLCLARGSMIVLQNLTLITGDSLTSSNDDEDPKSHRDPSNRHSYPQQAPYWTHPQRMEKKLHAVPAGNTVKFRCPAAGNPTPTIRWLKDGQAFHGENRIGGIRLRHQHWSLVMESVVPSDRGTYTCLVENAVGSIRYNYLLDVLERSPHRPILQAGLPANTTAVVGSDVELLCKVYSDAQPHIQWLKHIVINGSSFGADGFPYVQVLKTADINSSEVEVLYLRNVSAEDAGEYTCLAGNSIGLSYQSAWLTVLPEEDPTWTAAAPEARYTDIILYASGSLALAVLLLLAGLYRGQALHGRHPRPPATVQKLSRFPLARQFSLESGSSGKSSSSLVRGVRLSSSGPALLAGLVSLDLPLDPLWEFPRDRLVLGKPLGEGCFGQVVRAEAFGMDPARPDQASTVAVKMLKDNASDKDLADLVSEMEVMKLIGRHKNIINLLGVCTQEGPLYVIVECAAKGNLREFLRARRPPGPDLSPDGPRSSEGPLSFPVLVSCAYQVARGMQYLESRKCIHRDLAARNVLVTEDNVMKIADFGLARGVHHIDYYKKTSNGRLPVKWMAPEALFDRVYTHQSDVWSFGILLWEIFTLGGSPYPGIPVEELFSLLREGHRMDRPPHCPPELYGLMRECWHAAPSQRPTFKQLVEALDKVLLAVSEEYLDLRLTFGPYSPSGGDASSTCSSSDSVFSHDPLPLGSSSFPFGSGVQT
A further data set addresses PI3 Kinase (p120γ)(h) (Homo sapiens, UniProt P48736). The data set can be described thus: KinaseProfiler kinase assay. The class given is biochemical.
Data set [3] concerns human MV411 human acute myelogenous leukemia (AML) xenograft. The data set can be described thus: AML xenograft model in female SCID mice. The class given is in vivo, mouse. The method, then:
The objective of the first study was to evaluate antitumor activities of the novel multiple-kinase inhibitor NTW-3475 against human MV411 human acute myelogenous leukemia (AML) xenograft model in female SCID mice.
Four or six animals were randomly assigned to each study group. Each animal was injected subcutaneously in the left and right flank area with 0.1 ml of 1.0×10^8 MV411 cells per mL.
Each test or control animal was placed on a 5-day on, two-day off for two cycles of vehicle negative control or 25, 50 mg/kg of NTW-3475. Tumor growth was measured with a digital hand held caliper twice weekly (once tumor emerges) prior to the first dosing and then two to three times weekly until euthanized. Animals were weighed prior to tumor cell injection, prior to dosing, two to three times weekly with tumor growth measurements, and prior to euthanasia.
The objective of the first study was to evaluate antitumor activities of the novel multiple-kinase inhibitor Compounds 11, 68, and 82 against human MV411 human acute myelogenous leukemia (AML) xenograft model in female SCID mice.
Each test or control animal was placed on a 5-day on, two-day off for two cycles of vehicle negative control or 25, 50 mg/kg of compound. Tumor growth was measured with a digital hand held caliper twice weekly (once tumor emerges) prior to the first dosing and then two to three times weekly until euthanized. Animals were weighed prior to tumor cell injection, prior to dosing, two to three times weekly with tumor growth measurements, and prior to euthanasia.

In general, inhibition refers to the drop in the measured response relative to a control, in per cent. Consider `Cc1cc2c(F)c(Oc3nc(Nc4cc(C5CC5)[nH]n4)cc(N4CCN(C)CC4)n3)ccc2[nH]1` [Compound 10], for which the inhibition at 0.1 µM in [1] is -8%; against Lck(h), 99%; against Abl (Q252H) (h), 99%; at Abl(T315I)(h) it was 101%; against Fgr(h) it was 97%; against DRAK1(h), 36%. Moreover, the inhibition at 0.1 µM is 99% on Abl (H396P) (h); 103% against Abl(Y253F)(h); -4% against CK1γ1(h); 101% against EphB1(h); -21% at CK1δ(h); 2% at SAPK2a(T106M)(h). Besides, the inhibition at 0.1 µM against Ron(h) is 34%; against FGFR4(h) it was 88%; against PI3 Kinase (p120γ)(h), -2%. Also, in data set [2], the anti-tumor effect result is “strong anti-tumor effect”. Besides, the body weight change result in data set [2] was “no body weight lost”.

`Cc1cc2c(F)c(Oc3nc(Nc4cc(C5CC5)[nH]n4)cc(N4CCNCC4)n3)ccc2[nH]1` [Compound 11, N-(5-cyclopropyl-1H-pyrazol-3-yl)-2-((4-fluoro-2-methyl-1H-indol-5-yl)oxy)-6-(piperazin-1-yl)pyrimidin-4-amine]: the inhibition at 0.1 µM is -1% in [1]; 98% on Lck(h); 102% against Abl (Q252H) (h); 102% on Abl(T315I)(h); 100% at Fgr(h); 42% at DRAK1(h). Further, the inhibition at 0.1 µM at Abl (H396P) (h) is 102%; against Abl(Y253F)(h) it was 100%; against CK1γ1(h), -10%; against EphB1(h), 100%; on CK1δ(h), -3%; against SAPK2a(T106M)(h), 3%. In addition, the inhibition at 0.1 µM against Ron(h) is 43%; against FGFR4(h) it was 78%; at PI3 Kinase (p120γ)(h) it was -1%. Also, the anti-tumor effect result in data set [2] and in data set [3] was “strong anti-tumor effect” throughout. The body weight change entry in data set [2] is given as “no body weight lost”; in data set [3], “minimal body weight lost”.

As usually defined, the IC50 is the midpoint of a concentration-inhibition curve. A low value points to inhibition by little substance. As for `C/C=C/c1cc(Nc2cc(N3CCN(C)CC3)nc(Oc3ccc4[nH]c(C)cc4c3F)n2)n[nH]1` [Compound 53], the IC50 was 0.5 nM against Abl (Q252H) (h) (Abl (Q252H)); 0.5 nM against Abl(T315I)(h) (Abl(T315I)); less than 0.1 nM on Abl (H396P) (h) (Abl (H396P)); 0.5 nM at Abl(Y253F)(h) (Abl (Y253F)); 13 nM against FGFR4(h) (FGFR4).

As to `C/C=C/c1cc(Nc2cc(N3CCNCC3)nc(Oc3ccc4[nH]c(C)cc4c3F)n2)n[nH]1` [Compound 68], in data set [3], the anti-tumor effect entry is given as “strong anti-tumor effect” and the body weight change result is “minimal body weight lost”.

Take `Cc1cc2c(F)c(Oc3nc(Nc4cc(C5CC5)[nH]n4)cc(N4CCNCC4)n3)cc(F)c2[nH]1` [Compound 82]: in [3], the anti-tumor effect result is “strong anti-tumor effect” and the body weight change result is “minimal body weight lost”.

For the compound `C/C=C/c1cc(Nc2cc(N3CCN(C)CC3)nc(Oc3cc(F)c4[nH]c(C)cc4c3F)n2)n[nH]1` [NTW-3456], the “kinase inhibition of T315I abl mutant” value on Abl(T315I)(h) is listed as “inhibits”. Besides, the anti-tumor effect result in data set [2] and in data set [3] was “significant anti-tumor activity” throughout.
